Test results published in article PMC9227781, “Inhibitors of O-Acetylserine Sulfhydrylase with a Cyclopropane-Carboxylic Acid Scaffold Are Effective Colistin Adjuvants in Gram Negative Bacteria” (Pharmaceuticals, 2022).

Legend:
E. coli ATCC 25922 [1] = assay: MIC by broth microdilution, E. coli; assay type: cell-based, Escherichia coli; settings: Escherichia coli, ATCC25922; compound alone, MHB, 24 h at 37 °C; read-out: MIC (μg/mL) E.coli ATCC 25922
Procedure: (§1) MIC values were evaluated following CLSI guidelines with some modifications, as referred to in previous work. Twofold dilutions 25.6–0.05 mg/mL of the tested compounds were performed in DMSO in separate 96-well microtiter U-plates (Greiner, Milan, Italy). In a different 96-well microtiter U-plate, for each well of the replicates, 49 µL of broth medium were added. Then, in each well of the plate, one microliter of each compound at variable dilution in DMSO was added. For each test, three independent experiments with three replicates each were performed. Tested reference bacterial strains (E. coli ATCC25922; S. Typhimurium ATCC14028; K. pneumoniae ATCC13883) were brought to the logarithmic phase of growth in MHB medium by incubation at 37 °C for 24 h. After incubation, bacterial suspensions were centrifuged (2000 rpm, 4 °C for 20 min), and then the pellets were resuspended in 100 mM phosphate buffer, pH 7.0, to reach a final bacterial concentration of 10^8 CFU/mL, adjusted by spectrophotometry (OD620nm ranged between 0.08–0.13). The obtained suspensions were further diluted 1:100 in broth medium to reach a bacterial concentration of 10^6 CFU/mL. Fifty µL of the bacterial suspension containing 10^6 CFU/mL were inoculated into each well within 30 min, to obtain a final concentration of 5 × 10^5 CFU/mL in a total volume of 100 µL. The final dilution range tested was 256–0.5 µg/mL. Growth and sterility controls were performed for each strain and for each tested compound. Plates were then incubated for 24 h at 37 °C in a static aerobic atmosphere. After incubation, plates were read by unaided eye with a microtiter reading mirror and then the OD of each well of the plates was measured spectrophotometrically at 620 nm. MIC values were calculated as the arithmetic mean ± standard deviation (SD) of the unaided eye reading and the inhibition of growth for each tested dilution was calculated from the OD values (mean ± SD). A quality control microorganism (E. coli ATCC 25922) was tested periodically to validate the accuracy of the procedure.

S. Typhimurium ATCC14028 = assay: MIC by broth microdilution, S. Typhimurium; assay type: cell-based, Salmonella enterica serovar Typhimurium; settings: Salmonella enterica; compound alone, MHB, 24 h at 37 °C; read-out: MIC (μg/mL) S. Typhimurium ATCC14028
Procedure: as §1

K. pneumoniae ATCC13883 = assay: MIC by broth microdilution, K. pneumoniae; assay type: cell-based, Klebsiella pneumoniae; settings: Klebsiella pneumoniae, ATCC13883; compound alone, MHB, 24 h at 37 °C; read-out: MIC (μg/mL) K. pneumoniae ATCC13883
Procedure: as §1

E. coli ATCC 25922 [2] = assay: Checkerboard assay with colistin, E. coli; assay type: cell-based, Escherichia coli; settings: for MIC Colistin E. coli: colistin in combination with compound at 8 μg/mL; for FIC Index E. coli / FIC Index interpretation E. coli: compound at 8 μg/mL with colistin; for fold reduction of MIC of colistin, E. coli: compound at 8 µg/mL, versus colistin alone
Procedure: Antimicrobial activity of associations between the different compounds and colistin (Sigma-Aldrich, St. Louis, MO, USA, lot n. 049M-4836 V) was tested with checkerboard assay with minor modifications, as mentioned in the previous work. For each assay, three experiments with three replicates each were assessed. For each compound tested concentration, 96-wells microtiter U-plates were prepared with twofold serial dilutions of colistin in MHB starting from the MIC value (µg/mL) for ten consecutive dilutions in 50 µL of broth. In each well of the same replicate, 1 µL of each compound in DMSO was added at a fixed concentration, 100 times higher than the final desired concentration (3.2; 1.6; 0.8 mg/mL). Subsequently, 49 µL of the bacterial suspension at a concentration of 10^6 CFU/mL, adjusted spectrophotometrically as reported above, was added to each well, reaching the final bacterial concentration of 5 × 10^5 CFU/mL. Growth and sterility controls were performed for each experiment and for each replicate. Finally, the plates were incubated at 37 °C in aerobic atmosphere for 24 h. After incubation, plates were read by unaided eye with a microtiter reading mirror and then the OD of each well of the plates was measured spectrophotometrically at 620 nm. MIC values were calculated as the arithmetic mean ± SD of the unaided eye reading and the inhibition of growth for each tested dilution was calculated from the OD values (mean ± SD).
To evaluate the antimicrobial effect of the two molecules in association, the FIC index was calculated as follows. The MICs of each of the two molecules tested individually and in combination with each other were evaluated and the results have been included in the following formula as reported by Meletiadis et al.: FIC=MICA in combination/MICA+MICB in combination/MICB where MICA was the MIC of the compound UPAR415 and MICA in combination was the MIC of UPAR415 in combination with colistin. MICB was the MIC of colistin and MICB in combination was the MIC of colistin in combination with UPAR415. From the results of the FIC index formula, the antimicrobial activity in combination of the two molecules can be considered: synergistic, additive, indifferent of antagonistic. If the FIC index is ≤ 0.5, the association is synergic; additive if FIC is between 0.5 and 1; indifferent if FIC is between 1 and 4; and antagonistic if FIC is ≥4 [50].
Statistical analysis of checkerboard results in comparison with MIC values of colistin alone was performed using the Analysis of Variance (ANOVA) test.

Cc1ccc(CC2(C(=O)O)CC2c2cccc(N3CC(C)OC(C)C3)c2)cc1 (stereo not drawn) [Compound 13h, trans-2-(3-(2,6-dimethylmorpholino)phenyl)-1-(4-methylbenzyl)cyclopropanecarboxylic acid]
MIC (E. coli ATCC 25922 [1]): > 512 µg/mL
MIC (S. Typhimurium ATCC14028): > 512 µg/mL
MIC (K. pneumoniae ATCC13883): > 512 µg/mL
MIC Colistin E. coli (E. coli ATCC 25922 [2]): 0.18 ± 0.06 µg/mL
FIC Index E. coli (E. coli ATCC 25922 [2]): 0.48
FIC Index interpretation E. coli (E. coli ATCC 25922 [2]): synergy (If the FIC index is ≤ 0.5, the association is synergic)
fold reduction of MIC of colistin, E. coli (E. coli ATCC 25922 [2]): 3 fold

CCOC(=O)C1(Cc2ccc(C)cc2)CC1c1cccc(N2CC(C)OC(C)C2)c1 (stereo not drawn) [Compound 12h, trans-ethyl 2-(3-(2,6-dimethylmorpholino)phenyl)-1-(4-methylbenzyl)cyclopropanecarboxylate]
MIC (E. coli ATCC 25922 [1]): > 512 µg/mL
MIC (S. Typhimurium ATCC14028): > 512 µg/mL
MIC (K. pneumoniae ATCC13883): > 512 µg/mL
MIC Colistin E. coli (E. coli ATCC 25922 [2]): 0.122 ± 0.08 µg/mL
FIC Index E. coli (E. coli ATCC 25922 [2]): 0.33
FIC Index interpretation E. coli (E. coli ATCC 25922 [2]): synergy (If the FIC index is ≤ 0.5, the association is synergic)
fold reduction of MIC of colistin, E. coli (E. coli ATCC 25922 [2]): 2 fold
